Values joined by “and” are separate entries in the source; they are usually repeats but may differ in a detail not shown here. Equal entries are not always repeated.
Assays:
Format in all cases: cell-based, soybean
[1] = system: axillary meristem explants; assay: Regeneration capacity of axillary meristem explants on shoot initiation medium with BAP or TDZ; conditions: three weeks on shoot induction medium
Method: Cultivar Jack was used in both growing conditions tested. For in vitro donor material, sterile seeds were sown in a Plantcon™ (SIGMA) containing ½ MS salts and 2% sucrose pH 5.7. Seedlings were maintained at 25° C. 16/8 hours (light/dark) photoperiod, at a light intensity between 40 to 70 μM m^−2 s^−1. For greenhouse donor plants, seeds were sown on Metromix™ and grown in the greenhouse at 25° C. and 16 hour photoperiod. Greenhouse tissues were excised from the plant after 3 weeks. For greenhouse materials, the tissues were surface sterilized by immersion on a solution containing 5% Tween 20, followed by immersion in 70% (v/v) ethanol for 2 min then washed for 10 min in 3.5% (v/v) sodium hypochlorite solution and finally rinsed 3 times in sterile water. For in vitro donor material, no further sterilization was needed. Axillary meristem explants were placed basipetal into shoot initiation medium containing full strength MS salts and B5 Gamborg's vitamins amended with either 5 μM BAP or 2 mg/L (9.1 μM) TDZ. […]

[2] = system: explants from the cultivar L00106CN; assay: GUS (+) foci on explants infected with AGL1 carrying three binary vectors, with L-cysteine; conditions: 400 mg/L (3.3 mM) L-cysteine, AGL1, 10 days post-infection
From the text: Seed germination, propagation, A. tumefaciens and axillary meristem explant preparation, and inoculations were done as previously described. In the first experiment, three A. tumefaciens strains, MP90, LBA4404 and AGL1, containing the binary vector pBPSMM192b (SEQ ID NO: 2) were compared. The infected propagated axillary meristems with the 3 A. tumefaciens strains were removed from the co-cultivation media after 3 days and GUS stained 10 days after inoculation.
In a separate experiment, GUS expression was evaluated on explants from the cultivar L00106CN 10-days after infection with the Agrobacterium strain AGL1 containing the binary vectors pBPSLM003 [LB-OCSt-bar-pMAS::pSuper-gusINT-NOSt-RB] (SEQ ID NO: 3), pBPSMM192a [LB-NOSt-gusINT-pSuper::AtAhast-AtAhas-pAtAhas-RB], or pBPSMM192b [LB-pSuper-gusINT-NOSt::AtAhast-AtAhas-pAtAhas-RB] (SEQ ID NO: 2). The backbone sequence of pBPSLM003 (SEQ ID NO: 3) is different of that in pBPSMM192a and b (SEQ ID NO: 2). The vector pBPSMM192a [LB-NOSt-gusINT-pSuper::AtAhast-AtAhas-pAtAhas-RB is distinguished from the vector pBPSMM192b (SEQ ID NO: 2) by the orientation of the pSuper-gusINT-NOSt expression cassette, which is in reverse orientation.
Explants were also evaluated for GUS expression on explants that had been co-cultivated with or without 400 mg/L (3.3 mM) L-cysteine in the solid co-cultivation medium. Twenty explants of each treatment were prepared for each repetition, a total of 2 repetitions in this experiment. GUS expression was scored 10-days-post initial infection.

[3] = system: leaf explants; assay: Transient GUS expression on leaf explants after co-cultivation on CCM with thiol compounds (Example 8, experiment 2); conditions: for Entire: explant with GUS (+) foci: entire explant immersed; for Dip: explant with GUS (+) foci: petiole end dipped
Method: In both experiments, soybean cultivar (e.g., Jack) and the Agrobacterium tumefaciens strain AGL1 containing the binary plasmid pBPSEW008 (SEQ ID NO: 1) was used. The binary plasmid contains nosP-bar-nosT and pUBI-gusINT-nosT. The leaf explants and Agrobacterium were prepared as described earlier. The final Agrobacterium OD600 used for all experiments was 0.5. In the first experiment, two repetitions were made for which the following conditions were tested, • (1) addition of one of five thiol combinations added to CCM (no thiols, 100 mg/L L-cysteine (0.825 mM), 400 mg/L L-cysteine (3.3 mM), 1000 mg/L L-cysteine (8.25 mM), or 1 mM sodium thiolsulfate+1 mM DTT+ 1000 mg/L L-cysteine (8.25 mM)), • (2) 3, 4, or 5 day co-cultivation at 25° C., and • (3) incubation in the dark or under 100 μE/m2s cool white light under a 16 light/8 dark light regime. In the second experiment, explants were prepared and subjected to the above treatments except all leaf explants were co-cultivated for 5 days and either the entire ex-plant was immersed into the Agrobacterium/CCM suspension for 10 minutes or the cut petiole end of the explant dipped. Ten explants were entirely immersed per treatment and 4 explants were dipped per treatment. All explants were GUS-stained immediately after co-cultivation.

[4] = system: propagated axillary meristems (cultivar Jack); assay: GUS expression on propagated axillary meristem explants co-cultivated with L-cysteine; conditions: for frequency of propagated axillary meristems showing GUS(+) foci, Day3: AGL1
Method: Explant preparation: Seeds of variety Jack were surface sterilized by exposure to 70% ethanol for 6 min then immersed in a solution that contained 25% commercial bleach (NaOCl) and 0.1% Tween 20 and stirred at 200 rpm for 20 min. Seeds were rinsed 4 times in sterile water. Germination was carried out for 7 day in the dark at 25° C. The root and half of both cotyledons were removed from the seven-day-old seedlings and imbedded into propagation media on 150×20 mm Petri plates. Plates were sealed with Parafilm™ and placed in a culture room at 25° C. in the light for 2 to 5 weeks.
A. tumefaciens preparation and explant inoculation: A. tumefaciens strain AGL1 carrying the binary vector pBPSMM192b [LB-pSuper-gusINT-NOSt::AtAhast-AtAhas-pAtAhas-RB] (SEQ ID NO: 2) was used. A single colony was used to inoculate 25 to 30 ml LB media containing the appropriate antibiotics. Flasks were shaken on an orbit shaker (220 rpm) at 28° C. for 24 to 36 hours the OD600 reached 0.8 to 1.0. The Agrobacterium was pelleted by centrifugation at 3500 rpm for 8 to 10 min. The bacterial cells were re-suspended in liquid co-cultivation media containing 200 μM acetosyringone. Once cut, the propagated axillary meristem explants were immediately immersed in the A. tumefaciens suspension and remained for 30 minutes. Infected tissues were then transferred either to a vacuum chamber (25-30 mm Hg) for 5 min or placed directly on co-cultivation media. Before transferring onto cultivation medium, explants were blotted dry on sterile filter paper. The treatment tested was the addition of 0, 400, or 800 mg/L L-cysteine into the solid co-cultivation media (0, 3.3, or 6.6 mM, respectively). Co-cultivation was carried out in the dark for 3 days at 25° C. Vacuum infiltration results in an increase of transformation efficiency in protocols which were performed without cysteine-supplementation, but has no significant effect on protocols which were performed with cysteine-supplementation. GUS histochemical assay: Propagated axillary meristem explants infected with A. tumefaciens strain AGL1 were removed from the co-cultivation media after 3 days and stained with Gus overnight at 37° C. Remaining explants were transfer to shoot induction media containing 500 mg/L Timentin™. Gus histochemical assays were also performed at 10 and 45 days after inoculation. Results: After 3 days co-cultivation, the frequency of explants with GUS^+ foci increased from 2.5% to 45 and 63% by the addition of 800 (6.6 mM) or 400 mg/L (3.3 mM) L-cysteine, respectively, into the solid co-cultivation medium. […] The increases in GUS staining were also seen 10 and 45 days after co-cultivation (Table 10).

[5] = system: leaf explants; assay: Callus/shoot pad regeneration of leaf explants after co-cultivation on CCM with thiol compounds (Example 8, experiment 1); conditions: L-cysteine levels over 400 mg/L (3.3 mM) in CCM
Method: In both experiments, soybean cultivar (e.g., Jack) and the Agrobacterium tumefaciens strain AGL1 containing the binary plasmid pBPSEW008 (SEQ ID NO: 1) was used. The binary plasmid contains nosP-bar-nosT and pUBI-gusINT-nosT. The leaf explants and Agrobacterium were prepared as described earlier. The final Agrobacterium OD600 used for all experiments was 0.5. In the first experiment, two repetitions were made for which the following conditions were tested, • (1) addition of one of five thiol combinations added to CCM (no thiols, 100 mg/L L-cysteine (0.825 mM), 400 mg/L L-cysteine (3.3 mM), 1000 mg/L L-cysteine (8.25 mM), or 1 mM sodium thiolsulfate+1 mM DTT+ 1000 mg/L L-cysteine (8.25 mM)), • (2) 3, 4, or 5 day co-cultivation at 25° C., and • (3) incubation in the dark or under 100 μE/m2s cool white light under a 16 light/8 dark light regime. Ten explants were prepared for each treatment. The explants were grown on SIM medium for 2 weeks after which time the percent of explants developing a callus/shoot pad were recorded.

[6] = 100 mg/l Cys in CCM, Light, 5 days co-cultivation

With c1ccc(CNc2ncnc3nc[nH]c23)cc1 [BAP, 6-benzylaminopurine] the “Mean # of shoots per explant” value ([1]; Greenhouse plant, BAP 5 uM) was 0.20 and the “Mean # of shoots per explant” value ([1]; In vitro plant, BAP 5 uM) was 1.97.
With N[C@@H](CS)C(=O)O [L-cysteine] the “frequency of GUS (+) foci on explants, pBPSLM003” value [2] was 85%, the “frequency of GUS (+) foci on explants, pBPSMM192a” value [2] was 77% and the “frequency of GUS (+) foci on explants, pBPSMM192b” value [2] was 95%. For the same compound, the “Entire: explant with GUS (+) foci” value [3, 6] was 6/10, the “Dip: explant with GUS (+) foci” value [3, 6] was 0/4 and the “Entire: explant with GUS (+) foci” value ([3]; 100 mg/l Cys, Dark) was 7/10. For the same compound, the “Dip: explant with GUS (+) foci” value ([3]; 100 mg/l Cys, Dark) was 0/4, the “Entire: explant with GUS (+) foci” value ([3]; 400 mg/l Cys, Dark) was 9/10 and the “Dip: explant with GUS (+) foci” value ([3]; 400 mg/l Cys, Dark) was 3/4. For the same compound, the “Entire: explant with GUS (+) foci” value ([3]; 400 mg/l Cys, Light) was 9/10, the “Dip: explant with GUS (+) foci” value ([3]; 400 mg/l Cys, Light) was 1/4 and the “effect on explant tissue” value ([3]; 1000 mg/L L-cysteine in CCM) was “significant bleaching”. For the same compound, the “Entire: explant with GUS (+) foci” value ([3]; 1000 mg/l Cys, Dark) was 3/10, the “Dip: explant with GUS (+) foci” value ([3]; 1000 mg/l Cys, Dark) was 0/4 and the “Entire: explant with GUS (+) foci” value ([3]; 1000 mg/l Cys, Light) was 3/10. For the same compound, the “Dip: explant with GUS (+) foci” value ([3]; 1000 mg/l Cys, Light) was 1/4, the “frequency of propagated axillary meristems showing GUS(+) foci, Day 10” value ([4]; 400 mg/L L-cysteine) was 90.0% and the “frequency of propagated axillary meristems showing GUS(+) foci, Day 45” value ([4]; 400 mg/L L-cysteine) was 22.5%. The “frequency of propagated axillary meristems showing GUS(+) foci, Day3” value ([4]; 400 mg/L L-cysteine in solid co-cultivation medium) was 63% and 65.0%, the “frequency of propagated axillary meristems showing GUS(+) foci, Day 10” value ([4]; 800 mg/L L-cysteine) was 72.5% and the “frequency of propagated axillary meristems showing GUS(+) foci, Day 45” value ([4]; 800 mg/L L-cysteine) was 7.5%. The “frequency of propagated axillary meristems showing GUS(+) foci, Day3” value ([4]; 800 mg/L L-cysteine in solid co-cultivation medium) was 45% and 47.5%, the “browning and tissue necrosis of explants” value ([4]; compared with explants not exposed to L-cysteine) was “less browning and tissue necrosis” and the “effect on explant tissue” value [5] was “tissue death”.
With O=C(Nc1ccccc1)Nc1cnns1 [TDZ] the “Mean # of shoots per explant” value ([1]; Greenhouse plant, TDZ 9.1 μM) was 0.32 and the “Mean # of shoots per explant” value ([1]; In vitro plant, TDZ 9.1 μM) was 0.74.

Reference: patent US8541653B2, “Transformation of soybean” (BASF Plant Science GmbH, priority 2004, dated 2013)
